Test results published in the supplement of paper PMC11451515.

Columns and labels:
Conditions in all cases: 48 h
P12-Ichikawa [1] = experiment: AUC of viability dose-response curve (% viability x log10 dose units); higher = less sensitive
Outline: (§1)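 Leukemia cells adapted to each medium were seeded in 1536-well plates (500 or 1000 cells/well) and given library compounds in DMSO for 48 h at 37°C. The 11 threefold doses spanned 47 μM to 0.79 nM, and CellTiter-Glo One luminescence was normalised per plate to DMSO and cell-free wells before four-parameter log-logistic fitting on log10 dose. Area under the curve was integrated with the trapezoidal rule, scaling curves above full viability and removing curves that failed quality control.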

SEM cells [2] = experiment: as above
Outline: as §1

NOMO1 [3] = experiment: as above
Outline: as §1

SEM cells [4] = experiment: cell viability relative to DMSO control; higher = less cytotoxic
Outline: (§2)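 NOMO1 or SEM (500 cells/well) or P12-Ichikawa (1000 cells/well) leukemia cells were adapted for at least four passages in each medium. They were seeded in 1536-well plates (5 μl) and pin-dosed with library compounds in DMSO over an 11-point threefold series, 47 μM to 0.79 nM. CellTiter-Glo One luminescence was read after 48 h at 37°C. Viability is the per-plate percentage relative to DMSO wells, with cell-free wells as background.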

P12-Ichikawa [5] = experiment: as above
Outline: as §2

NOMO1 [6] = experiment: as above
Outline: as §2

Cc1cc2c(cc1C1(c3ccc(C(=O)O)cn3)CC1)C(C)(C)CCC2(C)C
AUC of viability dose-response curve
Conditions	NOMO1 [3]	P12-Ichikawa [1]	SEM cells [2]
HPLM + 10% dialyzed FBS	371	433	458
RPMI 5 mM glucose + 10% FBS	429	435	418
RPMI 5 mM glucose + 10% dialyzed FBS	417	429	407

Cc1cncc2cccc([S+](=O)([O-])N3CCCN(C(=O)CN)C[C@@H]3C)c12
AUC of viability dose-response curve
Conditions	NOMO1 [3]	P12-Ichikawa [1]	SEM cells [2]
HPLM + 10% dialyzed FBS	455	401	419
RPMI 5 mM glucose + 10% FBS	446	401	397
RPMI 5 mM glucose + 10% dialyzed FBS	438	412	392

SEM cells [4], HPLM + 10% dialyzed FBS
Conditions	cell viability [%]
0.000781 µM	94.8
0.00234 µM	114
0.00702 µM	126
0.0211 µM	124
0.0632 µM	122
0.19 µM	134
0.569 µM	138
1.71 µM	137
5.12 µM	79
15.4 µM	66.7
46.1 µM	39.9

CO/C1=C/C(C)=C\[C@@H](C)[C@@H](O)[C@@H](C)C/C(C)=C\C=C/[C@H](OC)[C@@H]([C@@H](C)[C@@H](O)[C@H](C)[C@@]2(O)C[C@@H](O)[C@H](C)[C@@H](C(C)C)O2)OC1=O
AUC of viability dose-response curve
Conditions	NOMO1 [3]	P12-Ichikawa [1]	SEM cells [2]
HPLM + 10% dialyzed FBS	208	291	213
RPMI 5 mM glucose + 10% FBS	229	263	211
RPMI 5 mM glucose + 10% dialyzed FBS	218	225	206

cell viability [%]
Conditions	NOMO1 [6]	P12-Ichikawa [5]	SEM cells [4]
HPLM + 10% dialyzed FBS, 0.000781 µM	79.5	88.2	91
HPLM + 10% dialyzed FBS, 0.00234 µM	97.1	99.5	74.8
HPLM + 10% dialyzed FBS, 0.00702 µM	91.8	91.5	91
HPLM + 10% dialyzed FBS, 0.0211 µM	90.6	96.3	48.6
HPLM + 10% dialyzed FBS, 0.0632 µM	58.8	81.7	28.7
HPLM + 10% dialyzed FBS, 0.19 µM	12.1	39.5	27
HPLM + 10% dialyzed FBS, 0.569 µM	12.7	34.8	27
HPLM + 10% dialyzed FBS, 1.71 µM	11.1	34.8	25.2
HPLM + 10% dialyzed FBS, 5.12 µM	12.6	37.5	32
HPLM + 10% dialyzed FBS, 15.4 µM	10.5	36.8	29
HPLM + 10% dialyzed FBS, 46.1 µM	9.72	33	29.7
RPMI 5 mM glucose + 10% FBS, 0.000781 µM	105	89	80.9
RPMI 5 mM glucose + 10% FBS, 0.00234 µM	95.9	96.6	75
RPMI 5 mM glucose + 10% FBS, 0.00702 µM	107	99.1	88.1
RPMI 5 mM glucose + 10% FBS, 0.0211 µM	82.3	88.6	46.8
RPMI 5 mM glucose + 10% FBS, 0.0632 µM	88.7	70.1	29.2
RPMI 5 mM glucose + 10% FBS, 0.19 µM	12.5	37.8	26.2
RPMI 5 mM glucose + 10% FBS, 0.569 µM	9.12	29.4	24.6
RPMI 5 mM glucose + 10% FBS, 1.71 µM	7.87	27.9	29.9
RPMI 5 mM glucose + 10% FBS, 5.12 µM	9.62	26.4	31.8
RPMI 5 mM glucose + 10% FBS, 15.4 µM	8.77	25.4	32.8
RPMI 5 mM glucose + 10% FBS, 46.1 µM	7.13	22.1	31.8
RPMI 5 mM glucose + 10% dialyzed FBS, 0.000781 µM	99.8	82.4	81.3
RPMI 5 mM glucose + 10% dialyzed FBS, 0.00234 µM	103	88.3	79.9
RPMI 5 mM glucose + 10% dialyzed FBS, 0.00702 µM	104	88.3	87.8
RPMI 5 mM glucose + 10% dialyzed FBS, 0.0211 µM	83	75.2	38.1
RPMI 5 mM glucose + 10% dialyzed FBS, 0.0632 µM	73.7	60.7	27.3
RPMI 5 mM glucose + 10% dialyzed FBS, 0.19 µM	8.37	29.9	27.8
RPMI 5 mM glucose + 10% dialyzed FBS, 0.569 µM	8.28	19.9	29.6
RPMI 5 mM glucose + 10% dialyzed FBS, 1.71 µM	8.09	21.3	30.1
RPMI 5 mM glucose + 10% dialyzed FBS, 5.12 µM	7.93	19.4	26.2
RPMI 5 mM glucose + 10% dialyzed FBS, 15.4 µM	6.37	20	29.7
RPMI 5 mM glucose + 10% dialyzed FBS, 46.1 µM	6.62	18	30.3
